Laboratory results as given in patent US20060069132A1, “Azolecarboxamide herbicides” (priority 2004, published 2006).

Experiments:
corn = assay: Test B pre-/postemergence herbicide test; format: in vivo, Zea mays; conditions: for Plant response rating, Corn: preemergence; for Corn plant response rating: postemergence, visual rating, scale 0 (no effect) to 100 (complete control)
In short: (§1)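 Response was scored visually 13 to 15 days after treatment against untreated greenhouse controls, 0 meaning no effect and 100 complete control. Formulations (solvent mixture plus surfactant) went onto soil after planting, onto foliage of 1- to 4-leaf plants, and onto 2-leaf plants in a flooded paddy set including rice and barnyardgrass.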

giant foxtail = assay: Test B pre-/postemergence herbicide test; format: in vivo, Setaria faberi; conditions: for Plant response rating, Foxtail, Giant: preemergence; for Foxtail, Giant plant response rating: postemergence, visual rating, scale 0 (no effect) to 100 (complete control)
In short: as §1

large crabgrass = assay: Test B pre-/postemergence herbicide test; format: in vivo, Digitaria sanguinalis; conditions: for Plant response rating, Crabgrass, Large: preemergence; for Crabgrass, Large plant response rating: postemergence, visual rating, scale 0 (no effect) to 100 (complete control)
In short: as §1

pigweed = assay: Test B pre-/postemergence herbicide test; format: in vivo, Amaranthus retroflexus; conditions: for Plant response rating, Pigweed: preemergence; for Pigweed plant response rating: postemergence, visual rating, scale 0 (no effect) to 100 (complete control)
In short: as §1

lambsquarters = assay: Test B pre-/postemergence herbicide test; format: in vivo, Chenopodium album; conditions: for Plant response rating, Lambsquarters: preemergence; for Lambsquarters plant response rating: postemergence, visual rating, scale 0 (no effect) to 100 (complete control)
In short: as §1

barnyardgrass = assay: Test B pre-/postemergence herbicide test; format: in vivo, Echinochloa crus-galli; conditions: for Plant response rating, Barnyardgrass: preemergence; for Barnyardgrass plant response rating: postemergence, visual rating, scale 0 (no effect) to 100 (complete control)
In short: (§2)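 Flooded paddy rice and barnyardgrass were treated at the 2-leaf stage; upland plantings received compound either on sown seed or on 1- to 4-leaf seedlings. All were kept 13–15 days in a greenhouse and scored visually, 0–100, relative to untreated plants.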

cocklebur = assay: Test B pre-/postemergence herbicide test; format: in vivo, Xanthium strumarium; conditions: for Plant response rating, Cocklebur: preemergence; for Cocklebur plant response rating: postemergence, visual rating, scale 0 (no effect) to 100 (complete control)
In short: as §2

wheat = assay: Test B postemergence herbicide test; format: in vivo, Triticum aestivum; set-up: key to Wheat plant response rating: 0 = no effect, 100 = complete control; conditions: postemergence, visual rating, scale 0 (no effect) to 100 (complete control)
In short: (§3)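 After treating 2-leaf paddy plants or 2–18 cm postemergence plants (1 to 4 leaves) with formulated chemical, researchers kept them in a greenhouse for 13–15 days. Effects were judged visually versus controls: 0 indicates none, 100 total control.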

velvetleaf = assay: Test B pre-/postemergence herbicide test; format: in vivo, Abutilon theophrasti; conditions: for Plant response rating, Velvetleaf: preemergence; for Velvetleaf plant response rating: postemergence, visual rating, scale 0 (no effect) to 100 (complete control)
In short: as §1

blackgrass = assay: Test B postemergence herbicide test; format: in vivo, Alopecurus myosuroides; conditions: postemergence, visual rating, scale 0 (no effect) to 100 (complete control)
In short: as §3

morningglory = assay: Test B pre-/postemergence herbicide test; format: in vivo, Ipomoea coccinea; conditions: for Plant response rating, Morningglory: preemergence; for Morningglory plant response rating: postemergence, visual rating, scale 0 (no effect) to 100 (complete control)
In short: as §2

Surinam grass = assay: Test B pre-/postemergence herbicide test; format: in vivo, Urochloa decumbens; conditions: for Plant response rating, Surinam Grass: preemergence; for Surinam Grass plant response rating: postemergence, visual rating, scale 0 (no effect) to 100 (complete control)
In short: as §1

[1] = tested on: small flower umbrella sedge; assay: Test B flooded paddy test; format: in vivo, Cyperus difformis; conditions: 1000 g ai/ha, visual rating, scale 0 to 100 (0 no effect, 100 complete control), 13 to 15 days
In short: as §3

wild oat = assay: Test B postemergence herbicide test; format: in vivo, Avena fatua; conditions: postemergence, visual rating, scale 0 (no effect) to 100 (complete control)
In short: as §3

[2] = 500 g ai/ha, visual rating 0-100, 0 no effect, 100 complete control
[3] = 125 g ai/ha, 0 to 100 scale, 0 is no effect, 100 is complete control

## CCCCOc1cccc(NC(=O)c2cc(C(C)(C)C)nn2CC)c1 [Compound 137]
corn; [2]
  Plant response rating, Corn: 10
corn; 125 g ai/ha
  Corn plant response rating: 10
corn; 500 g ai/ha
  Corn plant response rating: 20
corn; [3]
  Plant response rating, Corn: 10
Giant foxtail; [2]
  Plant response rating, Foxtail, Giant: 80
Giant foxtail; 125 g ai/ha
  Foxtail, Giant plant response rating: 10
Giant foxtail; 500 g ai/ha
  Foxtail, Giant plant response rating: 20
Giant foxtail; [3]
  Plant response rating, Foxtail, Giant: 40
Large crabgrass; [2]
  Plant response rating, Crabgrass, Large: 100
Large crabgrass; 125 g ai/ha
  Crabgrass, Large plant response rating: 10
Large crabgrass; 500 g ai/ha
  Crabgrass, Large plant response rating: 30
Large crabgrass; [3]
  Plant response rating, Crabgrass, Large: 80
pigweed; [2]
  Plant response rating, Pigweed: 100
pigweed; 125 g ai/ha
  Pigweed plant response rating: 90
pigweed; 500 g ai/ha
  Pigweed plant response rating: 100
pigweed; [3]
  Plant response rating, Pigweed: 80
lambsquarters; [2]
  Plant response rating, Lambsquarters: 80
lambsquarters; 125 g ai/ha
  Lambsquarters plant response rating: 80
lambsquarters; 500 g ai/ha
  Lambsquarters plant response rating: 80
lambsquarters; [3]
  Plant response rating, Lambsquarters: 10
barnyardgrass; [2]
  Plant response rating, Barnyardgrass: 70
barnyardgrass; 125 g ai/ha
  Barnyardgrass plant response rating: 30
barnyardgrass; 500 g ai/ha
  Barnyardgrass plant response rating: 40
barnyardgrass; [3]
  Plant response rating, Barnyardgrass: 10
cocklebur; [2]
  Plant response rating, Cocklebur: 0
cocklebur; 125 g ai/ha
  Cocklebur plant response rating: 50
cocklebur; 500 g ai/ha
  Cocklebur plant response rating: 100
cocklebur; [3]
  Plant response rating, Cocklebur: 0
wheat; 125 g ai/ha
  Wheat plant response rating: 10
wheat; 500 g ai/ha
  Wheat plant response rating: 20
velvetleaf; [2]
  Plant response rating, Velvetleaf: 60
velvetleaf; 125 g ai/ha
  Velvetleaf plant response rating: 40
velvetleaf; 500 g ai/ha
  Velvetleaf plant response rating: 60
velvetleaf; [3]
  Plant response rating, Velvetleaf: 10
blackgrass; 125 g ai/ha
  Blackgrass plant response rating: 10
blackgrass; 500 g ai/ha
  Blackgrass plant response rating: 20
morningglory; [2]
  Plant response rating, Morningglory: 20
morningglory; 125 g ai/ha
  Morningglory plant response rating: 0
morningglory; 500 g ai/ha
  Morningglory plant response rating: 60
morningglory; [3]
  Plant response rating, Morningglory: 0
Surinam grass; [2]
  Plant response rating, Surinam Grass: 80
Surinam grass; 125 g ai/ha
  Surinam Grass plant response rating: 20
Surinam grass; 500 g ai/ha
  Surinam Grass plant response rating: 70
Surinam grass; [3]
  Plant response rating, Surinam Grass: 20
[1]
  Sedge, Umbrella plant response rating: 90
Wild oat; 125 g ai/ha
  Oat, Wild plant response rating: 30
Wild oat; 500 g ai/ha
  Oat, Wild plant response rating: 70

## CCn1nc(C(C)(C)C)cc1C(=O)Nc1cccc(OCCCF)c1 [Compound 138]
corn; [2]
  Plant response rating, Corn: 10
corn; 125 g ai/ha
  Corn plant response rating: 20
corn; 500 g ai/ha
  Corn plant response rating: 30
corn; [3]
  Plant response rating, Corn: 0
Giant foxtail; [2]
  Plant response rating, Foxtail, Giant: 70
Giant foxtail; 125 g ai/ha
  Foxtail, Giant plant response rating: 20
Giant foxtail; 500 g ai/ha
  Foxtail, Giant plant response rating: 30
Giant foxtail; [3]
  Plant response rating, Foxtail, Giant: 30
Large crabgrass; [2]
  Plant response rating, Crabgrass, Large: 100
Large crabgrass; 125 g ai/ha
  Crabgrass, Large plant response rating: 20
Large crabgrass; 500 g ai/ha
  Crabgrass, Large plant response rating: 20
Large crabgrass; [3]
  Plant response rating, Crabgrass, Large: 40
pigweed; [2]
  Plant response rating, Pigweed: 100
pigweed; 125 g ai/ha
  Pigweed plant response rating: 60
pigweed; 500 g ai/ha
  Pigweed plant response rating: 90
pigweed; [3]
  Plant response rating, Pigweed: 60
lambsquarters; [2]
  Plant response rating, Lambsquarters: 100
lambsquarters; 125 g ai/ha
  Lambsquarters plant response rating: 80
lambsquarters; 500 g ai/ha
  Lambsquarters plant response rating: 90
lambsquarters; [3]
  Plant response rating, Lambsquarters: 0
barnyardgrass; [2]
  Plant response rating, Barnyardgrass: 70
barnyardgrass; 125 g ai/ha
  Barnyardgrass plant response rating: 10
barnyardgrass; 500 g ai/ha
  Barnyardgrass plant response rating: 20
barnyardgrass; [3]
  Plant response rating, Barnyardgrass: 10
cocklebur; [2]
  Plant response rating, Cocklebur: 10
cocklebur; 125 g ai/ha
  Cocklebur plant response rating: 40
cocklebur; 500 g ai/ha
  Cocklebur plant response rating: 90
cocklebur; [3]
  Plant response rating, Cocklebur: 0
wheat; 125 g ai/ha
  Wheat plant response rating: 20
wheat; 500 g ai/ha
  Wheat plant response rating: 30
velvetleaf; [2]
  Plant response rating, Velvetleaf: 40
velvetleaf; 125 g ai/ha
  Velvetleaf plant response rating: 20
velvetleaf; 500 g ai/ha
  Velvetleaf plant response rating: 50
velvetleaf; [3]
  Plant response rating, Velvetleaf: 0
blackgrass; 125 g ai/ha
  Blackgrass plant response rating: 0
blackgrass; 500 g ai/ha
  Blackgrass plant response rating: 20
morningglory; [2]
  Plant response rating, Morningglory: 20
morningglory; 125 g ai/ha
  Morningglory plant response rating: 20
morningglory; 500 g ai/ha
  Morningglory plant response rating: 60
morningglory; [3]
  Plant response rating, Morningglory: 0
Surinam grass; [2]
  Plant response rating, Surinam Grass: 30
Surinam grass; 125 g ai/ha
  Surinam Grass plant response rating: 20
Surinam grass; 500 g ai/ha
  Surinam Grass plant response rating: 30
Surinam grass; [3]
  Plant response rating, Surinam Grass: 0
[1]
  Sedge, Umbrella plant response rating: 80
Wild oat; 125 g ai/ha
  Oat, Wild plant response rating: 20
Wild oat; 500 g ai/ha
  Oat, Wild plant response rating: 30
